{"source": "ChEMBL document CHEMBL2311407", "about": "“Design and synthesis of diazatricyclodecane agonists of the G-protein-coupled receptor 119” (J Med Chem, 2013)", "test": "Apparent intrinsic clearance in human liver microsomes", "type": "ADME, Microsome", "settings": "read-out: CLH(app)", "data": [{"smiles": "CC[C@@H](C)OC(=O)N1C2CC3CC1CC(C2)N3c1ncnc(Oc2cccnc2C)c1C", "values": [{"measurement": "CLint scaled", "result": "> 30", "unit": "mL/min/kg"}]}, {"smiles": "CC[C@H](C)OC(=O)N1C2CC3CC1CC(C2)N3c1ncnc(Oc2cccnc2C)c1C", "values": [{"measurement": "CLint scaled", "result": "> 30", "unit": "mL/min/kg"}]}, {"smiles": "Cc1ncccc1Oc1ncnc(N2C3CC4CC2CC(C3)N4C(=O)OC2(C)CCC2)c1C", "values": [{"measurement": "CLint scaled", "result": "> 30", "unit": "mL/min/kg"}]}]}
